This assay in a line: Determination of GC-odor threshold values (gas chromatograph with sniff port, panel of trained evaluators). To be noted: absolute amount of compound delivered at the sniff port, identical conditions. The method, then: According to standard procedures known to the person skilled in the art, threshold values for volatile perfumery compounds are determined on a gas chromatograph equipped with a sniff port by a panel of trained evaluators. The lowest concentration smelled by each panelist is recorded as the individual threshold value expressed in ng (absolute amount of compound delivered at the sniff port).
Under identical conditions the odor threshold value for the individual compounds was measured.
`CC1=CCOC(CCCCc2ccccc2)C1` (centres unmarked) [Example 4, 4-Methyl-2-(4-phenylbutyl)-3,6-dihydro-2H-pyran, reference compound] had an odor threshold value of 63 ng. Compound `CC1=CC(C)OC(CCCc2ccccc2)C1` (centres unmarked) [Example 2, 4,6-Dimethyl-2-(3-phenylpropyl)-3,6-dihydro-2H-pyran] returned an odor threshold value of 0.03 ng. In turn, `CC1=CCOC(CCc2ccccc2)C1` (centres unmarked) [Example 5, 4-Methyl-2-phenethyl-3,6-dihydro-2H-pyran, reference compound] showed an odor threshold value of 45 ng. For `CC1=CCOC(Cc2ccccc2)C1` (centres unmarked) [Example 3, 2-Benzyl-4-methyl-3,6-dihydro-2H-pyran] the value was 0.03 ng; for `CC1=CCOC(CCCc2ccccc2)C1` (centres unmarked) [Example 1, 4-Methyl-2-(3-phenylpropyl)-3,6-dihydro-2H-pyran], 0.02 ng.

For the origin of these results see US12018229B2, “Organic compounds” (Givaudan SA, priority 2018, dated 2024).
